Experimental data taken from US4916149A, “Diuretic and saluretic 4-chloro-3-sulfamoylbenzoic acid hydrazides” (Chinoin Gyogyszer es Vegyeszeti Termekek Gyara Rt., priority 1987, dated 1990).
Read-outs that look alike come from different tables or passages of the source.

Experiments:
[1] = Saluretic/diuretic screening in rats (method of Lipschitz as modified by Kagawa and Kahn); format: in vivo, male LATI CFY rats; conditions: single oral dose (5 mg/kg oral screen dose), 24 hours; for response vs control in vivo at 5 mg/kg: Rattus norvegicus
Procedure: The compounds of the present invention were compared with Dihydrochlorothiazide and Furosemide in rats by administration of a 5 mg/kg oral screen dose.
The screening tests were carried out on male LATI CFY rats having an average body-weight of 240 g. The animals were kept on standard rat food and starved for 16 hours before the experiment but they received water ad libitum. For evaluation of the diuretic effect, the method of Lipschitz as modified by Kagawa and Kahn [Arch. Int. Pharmacodyn. 137, 241 (1962)] was used.
Effect of a single oral dose of the compounds according to the invention on water, sodium and potassium diuresis during 24 hours as percentage of the simultaneously measured control values as well as their effect on the Na/K ratio of the urine discharged

[2] = Antihypertensive activity in spontaneously hypertensive (SH) rats, systolic blood pressure; format: in vivo, spontaneously hypertensive (SH) male Okamoto rats; conditions: single oral dose 100 mg/kg
Procedure: […] A hypotension of 21.1% was induced by the compound of Example 1 by 12 hours after administration.
These investigations were carried but in spontaneously hypertensive (SH) male Okamoto rats. At least one week before starting the experiment, the animals had individually been maintained in cages and received water and semisynthetic rat food ad libitum. In the same time of each day, the blood pressure of each animal was measured and gastric tubing was carried out while immobilizing the animals. Animals with a blood pressure below 170 Hgmm were excluded from the experiment. Based on the daily determined blood pressure values, the animals were divided to experimental groups having a nearly equal average blood pressure and deviation.
At the beginning of the experiment, the animals were given 0.2 ml/100 g of a solution containing the test compound, and 1 ml/100 g of Furosemide solution, respectively. Animal groups treated with physiological saline solution and solvent, respectively were also investigated in each experiment.
Before measuring the blood pressure, the animals were put into a light-insulated sound-proof chamber then immobilized. An inflatable rubber cuff was placed on their tail root (onto the same site in each case) which was connected with a manometer.
The material and diameter of the tail cuff was standardized. The measurement was carried out according to the Riva-Rocci principle. For determining the systolic blood pressure, the palpitation method was used. The heart rate was evaluated by a piezoelektric crystal put onto the rubber ring. The blood pressure measurement of each animal was started by 2 minutes following the immobilization, repeated in every 30 seconds and usually, the values several times repeatedly observed were accepted.
Effect of a single oral dose of the compound of Example 1 or Furosemide, respectively on the systolic blood pressure of SH rats

[3] = Saluretic effect in dogs (urine volume, Na and K, 0-7 and 7-24 hours); format: in vivo, perineotomized female dogs; conditions: 7 to 24 hours' period
Procedure: The compound described in Example 1 was studied also on perineotomized female dogs. […] For adaptation, starting from the 4th week following the operation, the urinary bladder of the animals was evacuated by a catheter or treated with saline via a gastric tube. During the experiment, the dogs were kept on a standard food and they received water ad libitum. On the days of the experiements, the dogs were fasted and received only 20 ml/kg of water. Sodium in an 7.7 mmol/kg and potassium in an amount of 6.02 mmol/kg were introduced with the food.
On the day of the experiment, the bladder of the animals was evacuated and a blood sample was taken from the leg vein, then a solution of the diuretic and solvent to the controls, respectively were administered in a dose of 10 ml/kg via a gastric tube. The animals were placed separately in metabolic cages. After 7 and 24 hours, respectively the bladder of the animals was catheterized and the urine was collected by washing the metabolic cage. After 24 hours following the catheterization, a blood sample was taken again.
In addition to the discharged volume, the Na^+ and K^+ content of the urine as well as the glucose and cholesterol level of the serum were determined.

SMILES: NS(=O)(=O)c1cc(C(=O)O)c(NCc2ccco2)cc1Cl [Furosemide, reference compound]
- response vs control in vivo at 5 mg/kg ([1]; read-out: K (potassium) diuresis, percentage of the simultaneously measured control values): 105%
- response vs control in vivo at 5 mg/kg ([1]; read-out: Na (sodium) diuresis, percentage of the simultaneously measured control values): 106%
- response vs control in vivo at 5 mg/kg ([1]; read-out: Water diuresis, percentage of the simultaneously measured control values): 107%
- Na/K ratio of the urine discharged ([1]; control 3.0): 2.7
- Hypotension 6 hours following treatment, % ([2]; 6 hours): 25.3%
- Hypotension 6 hours following treatment ([2]; 6 hours, before treatment 201 mmHg): 51 mmHg
- Hypotension 12 hours following treatment, % ([2]; 12 hours): 19.4%
- Hypotension 12 hours following treatment ([2]; 12 hours, before treatment 201 mmHg): 39 mmHg
- Hypotension 24 hours following treatment, % ([2]; 24 hours): 1.5%
- Hypotension 24 hours following treatment ([2]; 24 hours, before treatment 201 mmHg): 3 mmHg
- diuretic effect in the 7 to 24 hours' period [3]: low
